This is an account of results in patent US6262064A, “Octahydrobenzo[f]quinoline-based receptor agonists and antagonists” (priority 1999, dated 2001).

Series [1] deals with T1, D4 receptor (Homo sapiens, UniProt P21917, DEL265-296).
T1 construct: expressed in transfected cells; host or cells: COS-7 cells
Nature of the series: D2:D4 comparative binding assay, D4 (COS-7 cells). The protocol:
(§1) To evaluate D2 versus D4 receptor selectivity, comparative binding assays were performed to compare the binding affinities of compositions of this invention for cloned D2 and D4 receptors.
(§2) The D2 assay was prepared from pig anterior pituitary tissue as described in Seeman et al., Molecular Pharmacology, 28:391 (1985). The D4 assay contained membranes prepared from COS-7 cells transfected with a 3.9 kb cDNA-gene fusion construct as described in H. H. M. Vantol, Nature, 350:610 (1991).
(§3) Binding assays were done using the methods described in by Seeman and Vantol. [^3 H]-spiperone (New England Nuclear, Boston, Mass.). The compositions were tested varying concentrations.
(§4) After addition of all components, the samples were incubated for 15 minutes at 37° C., terminated with 50 mM Tris-HCl (pH 7.4 at 20° C.) and collected on glass-fiber filters on a Brandel cell harvester. Radioactivity retained on the filters was counted on a Beckman LS 1701 scintillation counter and data were analyzed by non-linear least squares regression methods.

Series [2] addresses alpha1-adrenergic receptor. The conditions noted are these: for Ki: read-out: α1 receptor binding affinity Ki, Table III, rat forebrain membranes.
Description: In these assays, the binding reaction was initiated by the addition of varying concentrations of the potential binding composition and a radioligand to an appropriate tissue. The assay was then incubated to allow binding. Binding was then terminated by dilution of the assay with a cold buffer, followed by rapid vacuum filtration onto Whatman GI/C filters that were presoaked in 0.1% polyethylene imine for at least 3 hours. Radioactivity trapped onto the filters was determined and compared to control values in order to ascertain any interactions of test compounds with the binding sites. Binding affinity analyses were performed by Novascreen, Division of the Adheron Corporation, Hanover, Md.
Incubation was conducted in 50 mM TRIS-HCl (pH 7.7) at 25° C. for 60 minutes. […] The final ligand concentration was 0.5 nm.
Series [3] has as its target alpha2-adrenergic receptor. Description: Alpha2-adrenergic (non-selective) binding assay ([3H]RX 781094). The conditions noted are these: for Ki: Table III, rat cortical membranes, read-out: α2 receptor binding affinity Ki; for α2 receptor binding affinity: in words. Further details: species or system rat.
Series [4] deals with non-habituated male Swiss-Webster mice. Description: Locomotor dose-effect test. The series is classed as in vivo. The protocol:
Compounds of this invention were tested to evaluate any depressant effect upon locomotor activity on non-habituated and cocaine-influenced mice. Locomotor activity was measured in photocell cages. A panel of infrared beams was located in the horizontal direction along all 4 sides of each activity cage. Horizontal photocell beam interruptions were recorded by a computer in 10 minute intervals.
Non-habituated male Swiss-Webster served as subjects in this experiment. The mice were injected via the intraperitoneal (IP) route with a methycellulose vehicle or a test compound, comprising trans-9 or cis-9, and placed singly in cages for 20 minutes. After this 20 minute period, mice were injected with saline IP, placed in individual photocell cages and testing for effects upon locomotor activity was begun. Eight mice were tested at each dose level. Experimental sessions were 60 minutes in duration with horizontal locomotor activity recorded in 10 minute intervals. Within each 10 minute interval, the data from all subjects are averaged.
The results of these tests were provided in FIGS. 1a, 1b, 2a and 2b, as well as in Table XI. […] Data were analyzed by a one-way ANOVA computed across doses using a long10 transformation of the horizontal activity counts. Comparisons between vehicle and each dose of the compounds tested were made by a priori contrasts. Doses of the compounds tested, which produced a statistically significant (p<0.05) decrease in locomotor activity relative to vehicle control, are denoted with an asterisk. […] The horizontal activity counts were regressed against the log10 dose of the test compound.

The target of series [5] is T2, D2 receptor (Rattus norvegicus, UniProt P61169).
T2 construct: expressed in transfected cells
T2 sequence (P61169 whole entry): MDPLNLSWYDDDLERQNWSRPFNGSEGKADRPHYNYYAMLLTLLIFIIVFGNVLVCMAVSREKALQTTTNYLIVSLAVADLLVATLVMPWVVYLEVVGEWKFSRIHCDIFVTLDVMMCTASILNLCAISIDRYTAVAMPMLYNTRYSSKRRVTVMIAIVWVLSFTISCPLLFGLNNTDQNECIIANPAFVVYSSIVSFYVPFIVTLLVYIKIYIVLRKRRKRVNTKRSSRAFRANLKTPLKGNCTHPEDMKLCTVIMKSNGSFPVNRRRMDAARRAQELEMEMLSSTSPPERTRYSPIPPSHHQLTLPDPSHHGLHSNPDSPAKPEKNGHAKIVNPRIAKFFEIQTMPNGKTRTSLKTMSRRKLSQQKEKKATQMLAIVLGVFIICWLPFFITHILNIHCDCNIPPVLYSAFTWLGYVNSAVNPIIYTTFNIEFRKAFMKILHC
Nature of the series: D2 receptor agonist evaluation (membrane binding with and without Gpp(NH)p). The protocol: (§5) To determine the D2, D3 or D4 receptor selectivity, competition binding assays were performed using membranes from fibroblast cell lines transfected with D2444 (rat), D3 (human) or D4 (rat) receptors. All cell lines were maintained in Dulbecco's modified Eagle's media (DMEM) supplemented with 10 % fetal bovine serum at 37° C. with 5% CO2. Transfected cells were maintained in DMEM containing 300 μg/mL of the antibiotic G418 (Gibco).
To determine whether or not compounds of this invention were D2 receptor agonists, a membrane binding assay, utilizing the D2 cell line described in Example 26, was performed in the presence and absence of the non-hydrolyzable guanine nucleotide (GTP analogue) Gpp(NH)p.

For series [6], the target named is T3, D2 receptor (Sus scrofa, UniProt F1SM69).
T3 construct: pig anterior pituitary tissue; from tissue; host or cells: pig anterior pituitary
T3 sequence (F1SM69 1-443): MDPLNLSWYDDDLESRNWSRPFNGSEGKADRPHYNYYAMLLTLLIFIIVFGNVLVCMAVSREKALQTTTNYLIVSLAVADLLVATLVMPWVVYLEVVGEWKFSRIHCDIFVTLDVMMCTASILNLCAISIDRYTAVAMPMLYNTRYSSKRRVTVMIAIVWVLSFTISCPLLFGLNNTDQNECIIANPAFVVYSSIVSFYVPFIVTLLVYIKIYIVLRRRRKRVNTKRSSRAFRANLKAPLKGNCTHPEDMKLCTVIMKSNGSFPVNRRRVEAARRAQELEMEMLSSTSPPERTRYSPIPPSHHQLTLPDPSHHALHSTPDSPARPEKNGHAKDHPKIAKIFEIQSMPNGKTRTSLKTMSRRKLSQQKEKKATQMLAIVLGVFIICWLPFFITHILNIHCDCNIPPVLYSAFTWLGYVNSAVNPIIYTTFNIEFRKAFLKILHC
Description: D2:D4 comparative binding assay, D2 (pig anterior pituitary). The protocol: as §1, §2, §3, §4

The target in series [7] is T4, D2 dopamine receptor (Rattus norvegicus, UniProt P61169).
T4 construct: rat striatal membranes; from tissue; host or cells: rat striatum membranes
T4 sequence (P61169 whole entry): as the sequence (P61169 whole entry) above
Nature of the series: Dopamine D2 binding assay ([3H]Sulpiride). The conditions noted are these: for dopamine receptor binding affinity / selectivity for the D2 over the D1 dopamine receptor: in words. The protocol: The final ligand concentration was 0.5 nM.

Series [8] addresses T5, D4 (rat) receptor (Rattus norvegicus, UniProt P30729).
T5 construct: expressed in transfected cells
T5 sequence (P30729 1-387): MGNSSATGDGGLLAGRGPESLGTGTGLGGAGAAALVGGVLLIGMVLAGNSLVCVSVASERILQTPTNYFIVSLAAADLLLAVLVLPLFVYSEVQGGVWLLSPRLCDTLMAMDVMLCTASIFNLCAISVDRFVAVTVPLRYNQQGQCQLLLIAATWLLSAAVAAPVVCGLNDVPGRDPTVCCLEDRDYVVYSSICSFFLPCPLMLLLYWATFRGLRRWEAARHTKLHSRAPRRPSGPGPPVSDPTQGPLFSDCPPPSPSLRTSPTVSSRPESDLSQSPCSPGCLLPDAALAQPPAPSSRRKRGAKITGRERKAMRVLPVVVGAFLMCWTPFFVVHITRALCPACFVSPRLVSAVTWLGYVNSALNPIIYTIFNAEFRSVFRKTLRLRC
Description: D2:D3:D4 competition binding assay, D4 ([3H]-spiperone). The conditions noted are these: in words, Example 26. The protocol:
as §5
Nuclei were removed by centrifugation for five minutes at 600 g at 4° C., membranes were pelleted for 25 minutes at 50,000 g. Membrane protein was resuspended in homogenization buffer (0.32M sucrose, 0.0025M Tris, pH 6.9 at 20° C.) and incubated at 37° C. for 15 minutes. Membrane protein was pelleted, resuspended in water and stored at -70° C.
The compositions were tested in varying concentrations between 1 nM and 100 μM. Non-specific binding was determined using 1 μM eticlopride.
After addition of all components, the samples were incubated for 15 minutes at 37° C., terminated with 50 mM Tris-HCl (pH 7.4 at 4° C.) and collected on glass-fiber filters on a Brandel cell harvester. […] Each composition was evaluated in duplicate experiments.

The test system of series [9] is male Sprague-Dawley albino rats. Description: Stereotypy evaluation for dopaminergic activity. The series is classed as in vivo. The conditions noted are these: IP. The protocol: Young, adult, male Sprague-Dawley (Charles River) albino rats (200-250 g) served as subjects in this experiment. The rats were injected IP with each dose of (±)-trans-9 or (±)-cis-9. Six rats were tested at each dose. Experimental sessions were 60 minutes in duration. The tests were performed and rated in accordance with the method described in Campbell et al., Psychopharmacology, 88:158 (1986). Each rat was rated with a score of 0 to 3, where 0 represents no sterotypy.

For series [10], the target named is 5HT1 serotonin receptor. Description: Serotonin (5HT1) binding assay. The conditions noted are these: for Ki: read-out: 5-HT1 receptor binding affinity Ki, Table III, rat cortical membranes.
Description: In these assays, the binding reaction was initiated by the addition of varying concentrations of the potential binding composition and a radioligand to an appropriate tissue. The assay was then incubated to allow binding. Binding was then terminated by dilution of the assay with a cold buffer, followed by rapid vacuum filtration onto Whatman GI/C filters that were presoaked in 0.1% polyethylene imine for at least 3 hours. Radioactivity trapped onto the filters was determined and compared to control values in order to ascertain any interactions of test compounds with the binding sites.
Incubation was conducted in 50 mM TRIS-HCl (pH 7.4) at 45 minutes for 37° C. The radioligand used was [^3 H]Hydroxytryptamine binoxalate (15-30 Ci/mmol). The final ligand concentration was 3.0 nM.
In series [11] the target is T6, 5HT2 serotonin receptor (Rattus norvegicus, UniProt P14842).
T6 construct: rat cortical membranes; from tissue; host or cells: rat cortex membranes
T6 sequence (P14842 whole entry): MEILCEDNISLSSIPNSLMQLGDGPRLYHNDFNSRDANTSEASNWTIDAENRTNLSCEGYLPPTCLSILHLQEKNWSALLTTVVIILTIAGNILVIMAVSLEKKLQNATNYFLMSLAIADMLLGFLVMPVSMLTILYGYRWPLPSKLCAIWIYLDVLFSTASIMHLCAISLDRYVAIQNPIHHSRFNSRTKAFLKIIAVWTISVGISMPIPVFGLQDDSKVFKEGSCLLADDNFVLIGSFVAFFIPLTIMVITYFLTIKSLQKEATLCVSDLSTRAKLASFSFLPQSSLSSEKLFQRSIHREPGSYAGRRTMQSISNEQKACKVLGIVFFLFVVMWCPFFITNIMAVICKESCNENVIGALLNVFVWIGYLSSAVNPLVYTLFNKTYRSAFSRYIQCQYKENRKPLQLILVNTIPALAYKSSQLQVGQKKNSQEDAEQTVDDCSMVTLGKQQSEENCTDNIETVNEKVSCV
Nature of the series: Serotonin (5HT2) binding assay ([3H]Ketanserin). The protocol: The final ligand concentration was 1.0 nM.

The target of series [12] is T7, 5HT1A serotonin receptor (Bos taurus, UniProt F6Q2H9).
T7 construct: bovine hippocampus; from tissue; host or cells: bovine hippocampus
T7 sequence (F6Q2H9 1-422): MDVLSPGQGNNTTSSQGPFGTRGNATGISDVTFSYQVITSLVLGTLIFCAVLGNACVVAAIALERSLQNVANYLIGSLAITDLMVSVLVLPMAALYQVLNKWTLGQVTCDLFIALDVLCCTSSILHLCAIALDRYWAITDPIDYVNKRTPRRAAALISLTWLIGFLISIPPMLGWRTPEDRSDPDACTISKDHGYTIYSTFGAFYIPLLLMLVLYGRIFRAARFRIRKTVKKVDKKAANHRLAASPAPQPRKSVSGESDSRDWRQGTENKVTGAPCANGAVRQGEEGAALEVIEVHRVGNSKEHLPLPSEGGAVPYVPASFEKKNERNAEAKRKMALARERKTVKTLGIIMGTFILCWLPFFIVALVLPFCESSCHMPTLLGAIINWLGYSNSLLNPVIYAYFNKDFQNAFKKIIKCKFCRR
Nature of the series: Serotonin (5HT1A) binding assay ([3H]-8-OH-DPAT). The conditions noted are these: for Ki: 5-HT1A receptor binding affinity Ki, Table III, bovine hippocampus; for 5HT1A serotonin receptor binding affinity: in words. On the set-up: species or system bovine.

Series [13] has as its target T8, D1 dopamine receptor (Rattus norvegicus, UniProt P18901).
T8 construct: rat striatal membranes; from tissue; host or cells: rat striatum membranes
Description: Dopamine D1 binding assay ([3H]SCH 23390). The conditions noted are these: Table III; rat striatal membranes; read-out: D1 receptor binding affinity Ki. The protocol: The final radioligand concentration was 0.5 nM.

Where two headings read alike, the source gives them in different places.

T1 sequence (P21917 other isoform, or with tags, fused parts or gaps DEL265-296): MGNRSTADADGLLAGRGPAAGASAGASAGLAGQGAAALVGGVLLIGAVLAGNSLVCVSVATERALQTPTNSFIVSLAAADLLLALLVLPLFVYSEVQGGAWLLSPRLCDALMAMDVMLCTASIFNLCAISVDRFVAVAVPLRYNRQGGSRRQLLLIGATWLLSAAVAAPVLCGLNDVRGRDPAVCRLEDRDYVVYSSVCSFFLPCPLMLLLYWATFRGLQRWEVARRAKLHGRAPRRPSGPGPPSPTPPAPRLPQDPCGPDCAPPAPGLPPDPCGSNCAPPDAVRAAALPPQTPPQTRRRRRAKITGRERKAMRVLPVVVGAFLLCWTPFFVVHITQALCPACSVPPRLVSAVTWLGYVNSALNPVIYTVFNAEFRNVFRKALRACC
T8 sequence (P18901 whole entry): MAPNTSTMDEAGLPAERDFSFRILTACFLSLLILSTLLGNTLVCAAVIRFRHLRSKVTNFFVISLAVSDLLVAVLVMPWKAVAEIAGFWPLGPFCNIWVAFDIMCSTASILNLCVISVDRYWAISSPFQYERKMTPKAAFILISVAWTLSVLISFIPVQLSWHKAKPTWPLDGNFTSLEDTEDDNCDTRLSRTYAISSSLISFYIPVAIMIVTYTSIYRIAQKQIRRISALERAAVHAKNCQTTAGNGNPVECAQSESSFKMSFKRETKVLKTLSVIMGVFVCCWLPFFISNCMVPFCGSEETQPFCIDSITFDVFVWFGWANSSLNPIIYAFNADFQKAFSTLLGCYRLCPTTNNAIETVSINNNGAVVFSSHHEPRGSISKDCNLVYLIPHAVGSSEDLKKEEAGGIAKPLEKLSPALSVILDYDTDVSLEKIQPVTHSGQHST

What is called Ki is the equilibrium dissociation constant of an inhibitor or competing ligand from its target. For orientation: ED50 means the dose at which the effect has come halfway, by size or by number of responders. On to `Oc1ccc2c(c1O)CC[C@@H]1[C@H]2CCCN1CCc1ccccc1` (relative stereo) [cis-9], for which the inhibition constant Ki is 8.9 nM in series [1]; 190 nM in series [2]; 27 nM in series [3]; 872 ± 610 nM in [5] (Table XV, with Gpp(NH)p, read-out: D2 receptor binding Ki with Gpp(NH)p); 473 ± 313 nM in series [5] (Table XV, without Gpp(NH)p, read-out: D2 receptor binding Ki without Gpp(NH)p); 122 nM in series [6]. Besides, the affinity in series [7] corresponds to a Ki of 22 nM. Further, the “selectivity for the D4 receptor” value is reported as “selective for the D4 receptor over the D2 or D3 receptors” in [1] (in words, Example 27) and “highly selective for the D4 receptor over the D2 or D3 receptors” in series [8]. Further, the “α2 receptor binding affinity” value in [3] is on record as “high binding affinities for the α2 receptor”. In series [4] (IP, 10 mg/kg), the deaths entry is “Two of eight mice died”. Moreover, the “decrease in locomotor activity, overall assessment” value in series [4] (IP, in words) is listed as “much weaker than expected when compared to its dopamine D2 receptor affinity”. Moreover, the “suppression of locomotor activity” value in series [4] (IP, in words) is “dose-related suppression of locomotor activity of 10 mg/kg”. For the same compound, in series [4] (Mus musculus, read-out: ED50 (dose which produced 50% maximal depressant activity), IP, horizontal locomotor activity), the ED50 turned out to be 2.1 mg/kg. In addition, the “Ratio of +:- Gpp(NH)p” value in [5] (Table XV) is recorded as 1.84. In addition, the D2 agonist/antagonist assessment result in series [5] (in words) is reported as “appear to be an antagonist”. Moreover, the “effect of GTP on D2 receptor binding” value in series [5] (in words) is recorded as “the addition of GTP did not significantly affect receptor binding affinity”. In series [7], the “dopamine receptor binding affinity” value was “good dopamine receptor binding affinities”. Further, the “selectivity for the D2 over the D1 dopamine receptor” value (“selectivity for the D2” for short) in series [7] is listed as “highly selective for the D2 dopamine receptor over the D1 dopamine receptor”. Besides, the stereotypy score was 1.0 ± 0.4 in series [9] (0.0001 mg/kg); 0.7 ± 0.3 in [9] (0.001 mg/kg); 0.5 ± 0.2 in [9] (0.003 mg/kg); 0.0 in [9] (0.01 mg/kg); 0.0 in series [9] (0.03 mg/kg); 0.0 in series [9] (0.1 mg/kg). In addition, the stereotypy score in [9] (0.3 mg/kg), in [9] (1.0 mg/kg), in [9] (3.0 mg/kg) and in series [9] (10.0 mg/kg) was 0.0 each time. Also, the “induction of stereotypy, dopamine agonism” value in [9] (in words) was “did not induce stereotypy and therefore is not a dopamine agonist”.
For `Oc1ccc2c(c1O)CC[C@H]1[C@H]2CCCN1CCc1ccccc1` (single isomer, unassigned) [trans-(-)-9, Trans-(-)-7,8-Dihydroxy-4-phenethyl-1,2,3,4,4a,5,6, 10b-octahydrobenzo[f]quinoline], the Ki was found to be 130 nM in [2]; 3300 nM in series [10]; 9 nM in series [3]; 26 nM in series [11]; 0.38 nM in series [7]; 67 nM in [12]. The Ki in [13] came out at 3500 nM. Moreover, in [3], the “α2 receptor binding affinity” value is given as “high binding affinities for the α2 receptor”. Besides, in series [11] (in words), the “5HT2 serotonin receptor binding affinity” value is reported as “high binding affinities for the 5HT2 serotonin receptor”. In addition, the “dopamine receptor binding affinity” value in series [7] is given as “good dopamine receptor binding affinities”. In addition, in [7], the “selectivity for the D2” value is listed as “highly selective for the D2 dopamine receptor over the D1 dopamine receptor”. The “5HT1A serotonin receptor binding affinity” value in series [12] was “high binding affinities for the 5HT1A serotonin receptor”.
Regarding `Oc1cccc2c1CC[C@@H]1[C@@H]2CCCN1CCc1ccccc1` (single isomer, unassigned) [trans-(-)-25, trans-(-)-7-hydroxy-4-phenethyl-1,2,3,4a,5,6,10b-octahydrobenzo[f]quinoline], the “α1 receptor binding affinity” value in series [2] (in words) is given as “high binding affinities for the α1 receptor”. For the same compound, the Ki stood at 4.8 nM in [2]; 240 nM in series [10]; 2.1 nM in series [3]; 410 nM in [11] (5-HT2 receptor binding affinity Ki); 0.9 nM in [7]; 11 nM in series [12]. The Ki in series [13] stood at 3600 nM. In addition, the “5HT1 serotonin receptor binding affinity” value in [10] (in words) is “high binding affinity for the 5HT1 serotonin receptor”. Moreover, the “α2 receptor binding affinity” value in [3] is listed as “high binding affinities for the α2 receptor”. The “dopamine receptor binding affinity” value in [7] is listed as “good dopamine receptor binding affinities”. Also, in series [7], the “selectivity for the D2” value is given as “highly selective for the D2 dopamine receptor over the D1 dopamine receptor”. Besides, the “5HT1A serotonin receptor binding affinity” value in series [12] was “high binding affinities for the 5HT1A serotonin receptor”.
